14 molecules from PubChem BioAssay (NCI) can be followed below.

Molecules are shown by their SMILES.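 Each compound was tested at five concentrations against cells in 96-well plates for 48 hours. Abbreviation: GI50, concentration required for 50% inhibition of growth. The concentration for full growth arrest is given as TGI.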

Holding throughout (test): growth of human tumour cells (NCI), 48 h
Experiment [1] has as its system T-47D breast.
The test system of experiment [2] is M14 melanoma.
Experiment [3] relates to MOLT-4 leukemia.
Experiment [4] deals with RPMI-8226 leukemia.
Experiment [5] relates to ACHN renal.
For experiment [6], the system named is OVCAR-8 ovarian.
Experiment [7] has as its system SF-268 CNS.
In experiment [8] the test system is TK-10 renal.
Experiment [9] deals with OVCAR-4 ovarian.
For experiment [10], the system named is UO-31 renal.

For `O=C1CCCCCCCC/C=C/CCC(c2ccco2)O1` (stereo unspecified), the GI50 in experiment [1] was 21 µM; in [2], 67.7 µM; in experiment [3], 24.1 µM; in [4], 13.6 µM; in experiment [5] it was > 100 µM; in experiment [6], 88.1 µM. For the same molecule, the results for the GI50 in experiment [7] and in experiment [8] were 44.3 µM and 23.5 µM, respectively. The TGI in [1] is > 100 µM; in [2], > 100 µM; in [3], 89.6 µM; in experiment [4] it was 37.6 µM; in experiment [5], > 100 µM; in [6] it was > 100 µM. Moreover, the TGI in experiment [7] and in experiment [8] was > 100 µM throughout.
Take `CC1=NC2(CCCCC2)N(Cl)C(=O)C1SC#N` (stereo unspecified): the TGI in [1] came to 62.7 µM; in [2] it was 34.4 µM; in [3], 23.7 µM; in [5], 31.6 µM; in experiment [6], 32.7 µM; in [7] it was 33.5 µM. For the same molecule, the TGI was 35.1 µM in experiment [8], 46.2 µM in experiment [9] and 32.9 µM in experiment [10].
Take `CC(=O)Nc1nc(SCc2ccccc2)c2ncn(C(C)=O)c2n1`: the GI50 in experiment [1] is 50.7 µM; in [2] it was 88.6 µM; in [3], > 100 µM; in experiment [4], 55.6 µM; in experiment [5] it was 61.6 µM; in [6] it was 76.5 µM. Also, the results for the GI50 in experiment [7], in experiment [8] and in experiment [10] were > 100 µM, 23.4 µM and 43.5 µM, respectively. The TGI in experiment [1], in experiment [2], in [3], in experiment [4], in experiment [5] and in experiment [6] was > 100 µM throughout. The TGI was > 100 µM in [7], 78.3 µM in experiment [8] and > 100 µM in experiment [10].
Regarding `CCCCCCCCCNCCCCCCCCC`, the GI50 in experiment [1] is 1.91 µM; in [2], 1.76 µM; in [4] it was 1.96 µM; in [5], 1.76 µM; in [6] it was 2.19 µM; in [7] it was 2.29 µM. Further, the GI50 was 1.75 µM in [8], 1.75 µM in experiment [9] and 1.62 µM in [10]. For the same molecule, the TGI in experiment [1] was 3.59 µM; in experiment [2], 3.19 µM; in experiment [4] it was 4.18 µM; in experiment [5], 3.14 µM; in [6], 4.66 µM; in experiment [7], 5.28 µM. Moreover, the TGI was 3.23 µM in experiment [8], 3.78 µM in [9] and 3.8 µM in [10].
As to `O=C(c1cc(F)c(Cl)cc1Cl)N1N=C(c2ccccc2)CC1(O)c1ccccc1` (stereo unspecified), the GI50 in [1] was 18.1 µM; in [3], 19.8 µM; in experiment [4], 11.5 µM; in experiment [5] it was 23 µM; in [6], 25.5 µM; in experiment [7], 21.9 µM. The GI50 is 30.8 µM in experiment [8], 17.8 µM in experiment [9] and 15.7 µM in experiment [10]. Further, the TGI in [1] is 53.7 µM; in experiment [3] it was 43 µM; in experiment [4], 35.4 µM; in experiment [5] it was 59.4 µM; in experiment [6], 72.4 µM; in experiment [7] it was 53.2 µM. For the same molecule, the TGI in experiment [8] is 80.8 µM; in [9], 57.8 µM; in experiment [10], 30.1 µM.
`C[C@]12CC[C@H](O)CC1=CC[C@@H]1C2CC[C@]2(C)c3nn(-c4ccc(F)cc4)nc3CC12` (stereo partly specified): the TGI in [1], in experiment [2], in experiment [3], in [5], in [6] and in [7] was > 100 µM in each case. Also, the TGI in [8], in experiment [9] and in experiment [10] was > 100 µM in each case.
Consider `CCOC(=O)Cc1csc(/N=C2\NC(=O)/C(=C3\C(=O)N(C)c4ccccc43)S2)n1`, for which the GI50 was 81.5 µM in [1]; 40.3 µM in experiment [3]; 32.4 µM in [4]; 35.9 µM in [5]; 65.3 µM in experiment [6]; 45.2 µM in [7]. Besides, the values for the GI50 in [8], in experiment [9] and in experiment [10] were 31.9 µM, 35.2 µM and 35.6 µM, respectively. Further, the TGI in experiment [1], in [3], in experiment [4], in [5], in experiment [6] and in [7] was > 100 µM throughout. The TGI in experiment [8], in experiment [9] and in experiment [10] was > 100 µM in each case.
Regarding `C/C=C(\C)C(=O)N[C@H]1[C@@H](OC(C)=O)C[C@]2(C)C3CC[C@@]4(C)C(CC[C@@H]4C(C)N(C)C)C3CCC2[C@H]1O` (stereo partly specified), the GI50 in experiment [1] was 2.06 µM; in [2], 2.02 µM; in [3] it was 6.19 µM; in experiment [5], 5.74 µM; in [6], 11.2 µM; in experiment [7] it was 2.9 µM. The GI50 was 8.32 µM in experiment [8], 5.29 µM in [9] and 3.16 µM in experiment [10]. In addition, the TGI stood at 10.3 µM in experiment [1]; 3.72 µM in [2]; 33.8 µM in experiment [3]; 17.9 µM in experiment [5]; 43.4 µM in [6]; 13.3 µM in [7]. Further, the TGI was 24.5 µM in experiment [8], 31.5 µM in experiment [9] and 15.2 µM in [10].
Consider `C=C1C(=O)O[C@@H]2C1C[C@@H](O)/C(C)=C/C/C=C(\C)CCC[C@H](C)[C@H]2OC(C)=O` (stereo partly specified), for which the GI50 in [1] is 48.4 µM; in [2], 19.4 µM; in experiment [4] it was 24.9 µM; in [5], 21.3 µM; in [6], 35.5 µM; in experiment [7], 33.9 µM. The GI50 in experiment [8] is 24.2 µM; in experiment [9], 42.8 µM; in experiment [10], 15.6 µM. Moreover, the TGI in [1] was > 100 µM; in experiment [2], 44.1 µM; in experiment [4] it was 48.6 µM; in experiment [5] it was 42.6 µM; in [6] it was > 100 µM; in [7], > 100 µM. For the same molecule, the TGI in experiment [8] was 52.7 µM; in experiment [9], > 100 µM; in [10] it was 39.4 µM.
With `FC(F)(F)c1cccc(COCCN2CCN(Cc3cccc(C(F)(F)F)c3)CC2)c1`, the TGI in [1] was 39.1 µM; in experiment [2] it was 94.6 µM; in experiment [3], 41.9 µM; in [5], 29.1 µM; in experiment [6], 41.2 µM; in experiment [7], 30.3 µM. In addition, the TGI was determined as 27.4 µM in experiment [8], 32.1 µM in [9] and 24.9 µM in [10].
In the case of `COc1ccc(/C=C2\CN(C(=O)C(Cl)Cl)C/C(=C\c3ccc(OC)c(OC)c3)C2=O)cc1OC`, the GI50 was 0.361 µM in experiment [1]; 0.0926 µM in experiment [2]; 0.135 µM in experiment [3]; 0.0306 µM in experiment [4]; 0.165 µM in experiment [5]; 0.0495 µM in experiment [6]. Also, the GI50 in experiment [7] is 2.42 µM; in [10] it was 0.184 µM. Besides, the TGI is > 100 µM in [1]; 0.356 µM in experiment [2]; > 100 µM in experiment [3]; 0.155 µM in [4]; 0.381 µM in [5]; > 100 µM in [6]. In addition, the TGI is > 100 µM in [7] and 0.423 µM in experiment [10].
For `COc1ccc2c(c1)nc(N)c1c3cc(OC)c(OC)cc3cn21`, the GI50 is 0.721 µM in [1]; 0.281 µM in [3]; 0.0968 µM in experiment [4]; < 0.01 µM in experiment [5]; 0.123 µM in [6]; 3.48 µM in [8]. Further, the GI50 is 0.238 µM in [9] and 2.51 µM in experiment [10]. For the same molecule, the TGI in [1] was determined as 25.5 µM; in [3], 12.6 µM; in experiment [4], 12.8 µM; in [5], 16.3 µM; in [6] it was 13.6 µM; in experiment [7], 17.5 µM. Besides, the TGI in experiment [8] was 20.8 µM; in experiment [9], 17.8 µM; in [10], 20.5 µM.
For `COc1ccccc1C1=C2C(=O)N(C)C(c3ccccc3OC)=C2C(=O)N1C`, the TGI in [1], in [2], in experiment [3], in [5], in [6] and in experiment [7] was > 100 µM each time. Besides, the TGI in experiment [8], in experiment [9] and in experiment [10] was > 100 µM in each case.
Consider `O=C(Nc1ccc(-n2cc(-c3ccncc3)c(-c3ccc(Cl)c(O)c3)n2)cc1)Nc1cc(C(F)(F)F)cc(C(F)(F)F)c1`, for which the GI50 in experiment [1] was 1.85 µM; in experiment [2] it was 1.76 µM; in [3] it was 1.95 µM; in [5], 2.92 µM; in experiment [6] it was 1.99 µM; in experiment [7], 1.62 µM. The values for the GI50 in [8], in experiment [9] and in experiment [10] were 3.05 µM, 0.404 µM and 1.55 µM, respectively. For the same molecule, the TGI in [1] was determined as 8 µM; in experiment [2] it was 3.56 µM; in experiment [3], 7.37 µM; in experiment [5], 10.3 µM; in experiment [6], 5.48 µM; in experiment [7], 3.27 µM. The results for the TGI in experiment [8], in experiment [9] and in experiment [10] were 11.4 µM, 3.98 µM and 3.93 µM, respectively.
